The source of these data is ChEMBL document CHEMBL1201862, “PubChem BioAssay data set” (2004).

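Cells were grown in 96-well plates and exposed to each compound for 48 hours at five concentrations; endpoints were interpolated linearly between bracketing concentrations, or set to the highest concentration if not reached. Abbreviation: GI50, concentration required for 50% inhibition of growth.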 Active and inactive are the calls of the source. Rule as the data show it: active = GI50 up to about 1.1 µM and inactive = higher. Bounds are passed on as bounds.

Among the test systems are SR; COLO 205; MDA-MB-231; CCRF-CEM; BT-549; OVCAR-5; SF-539; SK-OV-3; HCC 2998; NCI-H226; SNB-19; NCI-H23; K562; SNB-75; SF-295; MDA-N; SN12C; 786-0; Malme-3M.
Common to all, as to assay: NCI-60 cell line screen, 48 h

Turning to `CC(C)c1ccc(/C=C2\N=C(c3ccc([N+](=O)[O-])cc3)OC2=O)cc1`, the GI50 with SR was > 100 µM (inactive); with COLO 205, > 100 µM (inactive); with MDA-MB-231 it was > 100 µM (inactive); in the experiment on CCRF-CEM it was 55.7 µM (inactive); with BT-549, > 100 µM (inactive); with OVCAR-5, > 100 µM (inactive). Further, the GI50 with SF-539, with SK-OV-3, in the experiment on HCC 2998, with NCI-H226, in the experiment on SNB-19 and with NCI-H23 was > 100 µM (inactive) each time. The GI50 with K562, in the experiment on SNB-75, with SF-295, with MDA-N, in the experiment with SN12C and with 786-0 was > 100 µM (inactive) in each case. The GI50 in the experiment on Malme-3M is 60.3 µM (inactive).
For `CCC(C)NC(=S)N/N=C(\C)c1nc2cccnc2[nH]1` (stereo not given), the GI50 is 3.85 µM (inactive) in the experiment on SR; 3.54 µM (inactive) in the experiment on COLO 205; 6.95 µM (inactive) with MDA-MB-231; 3.09 µM (inactive) in the experiment on CCRF-CEM; 13.5 µM (inactive) in the experiment with BT-549; 13.4 µM (inactive) with OVCAR-5. For the same molecule, the GI50 was 21.7 µM (inactive) in the experiment with SF-539; 10.3 µM (inactive) in the experiment with SK-OV-3; 13.4 µM (inactive) in the experiment with HCC 2998; 4.42 µM (inactive) with NCI-H226; 32.4 µM (inactive) with SNB-19; 41.6 µM (inactive) in the experiment on NCI-H23. Moreover, the GI50 in the experiment on K562 is 2.24 µM (inactive); with SNB-75 it was 48.5 µM (inactive); in the experiment on SF-295, 5.53 µM (inactive); in the experiment on MDA-N, 47.4 µM (inactive); with SN12C it was 21.6 µM (inactive); in the experiment on 786-0 it was 13.6 µM (inactive). Also, in the experiment with Malme-3M, the GI50 is 6.73 µM (inactive).
Regarding `O=C(Cc1nc2ccccc2[nH]c1=O)c1c[nH]c2ccccc12`, the GI50 in the experiment on SR was 4.42 µM (inactive); in the experiment with COLO 205, 11.1 µM (inactive); in the experiment on MDA-MB-231, 19.1 µM (inactive); with CCRF-CEM, 4.3 µM (inactive); with BT-549, 12.2 µM (inactive); with OVCAR-5, 23.6 µM (inactive). The GI50 was 19.2 µM (inactive) in the experiment with SF-539; 18.1 µM (inactive) with SK-OV-3; 13.3 µM (inactive) with HCC 2998; 11.9 µM (inactive) in the experiment on NCI-H226; 25.8 µM (inactive) with SNB-19; 20.4 µM (inactive) with NCI-H23. Moreover, the GI50 in the experiment on K562 was 6.07 µM (inactive); with SNB-75 it was 25.1 µM (inactive); in the experiment with SF-295, 9.04 µM (inactive); in the experiment with MDA-N, 12.1 µM (inactive); in the experiment on SN12C it was 13.8 µM (inactive); with 786-0, 13.9 µM (inactive). Moreover, the GI50 in the experiment with Malme-3M was 32.9 µM (inactive).
For `C=C(C(=O)OCC)C(=O)OCC`, the GI50 in the experiment with SR was 20.7 µM (inactive); with COLO 205 it was > 100 µM (inactive); in the experiment with MDA-MB-231 it was > 100 µM (inactive); in the experiment on CCRF-CEM, > 100 µM (inactive); with BT-549 it was > 100 µM (inactive); with OVCAR-5, > 100 µM (inactive). In addition, the GI50 in the experiment on SF-539, in the experiment on SK-OV-3, with HCC 2998, with NCI-H226, in the experiment on SNB-19 and in the experiment with NCI-H23 was > 100 µM (inactive) in each case. The GI50 in the experiment with K562, in the experiment on SNB-75, in the experiment on SF-295, in the experiment with MDA-N, with SN12C and in the experiment with 786-0 was > 100 µM (inactive) in each case. Moreover, the GI50 with Malme-3M was > 100 µM (inactive).
In the case of `COc1ccc([C@]23CCC4(OCC(C)(C)CO4)[C@H]4CON(O[C@H](O[C@@H]5CCCCC5C(C)(C)c5ccccc5)C2)[C@@H]43)cc1OC` (stereo not given in full), the GI50 in the experiment on SR is 20 µM (inactive); in the experiment on COLO 205, 34.7 µM (inactive); in the experiment with MDA-MB-231, 81.7 µM (inactive); with CCRF-CEM, 29.5 µM (inactive); in the experiment with BT-549, 69 µM (inactive); in the experiment with OVCAR-5, 89.1 µM (inactive). For the same molecule, the GI50 in the experiment on SF-539 is 5.81 µM (inactive); in the experiment with SK-OV-3, 78.3 µM (inactive); in the experiment with HCC 2998, > 100 µM (inactive); with NCI-H226, 58.6 µM (inactive); in the experiment with SNB-19, 61.7 µM (inactive); in the experiment on NCI-H23, 47.6 µM (inactive). The GI50 in the experiment on K562 was 21.5 µM (inactive); in the experiment with SNB-75, 41.5 µM (inactive); with SF-295, 39 µM (inactive); with MDA-N it was 28.8 µM (inactive); in the experiment on SN12C it was 61.1 µM (inactive); in the experiment on 786-0, 50.5 µM (inactive). Besides, the GI50 in the experiment with Malme-3M is 56.6 µM (inactive).
Take `CCC(C)C(N)C(=O)N/N=C\c1c2c(nc3ccccc13)-c1cc3c(c(=O)n1C2)COC(=O)[C@]3(O)CC` (stereo not given in full): the GI50 with SR is < 0.01 µM (active); in the experiment with COLO 205, 2.95 µM (inactive); in the experiment on MDA-MB-231, 2.37 µM (inactive); in the experiment on CCRF-CEM it was < 0.01 µM (active); in the experiment on BT-549 it was 0.174 µM (active); with OVCAR-5 it was 1.52 µM (inactive). Also, the GI50 is < 0.01 µM (active) with SF-539; 0.0528 µM (active) in the experiment on SK-OV-3; 0.36 µM (active) in the experiment with HCC 2998; 0.0598 µM (active) in the experiment with NCI-H226; < 0.01 µM (active) with SNB-19; 0.0112 µM (active) in the experiment on NCI-H23. Besides, the GI50 in the experiment with K562 was 0.063 µM (active); in the experiment on SNB-75 it was 0.0256 µM (active); with SF-295, 0.043 µM (active); with MDA-N, 0.46 µM (active); in the experiment with SN12C it was 0.0155 µM (active); with 786-0 it was 0.0361 µM (active). Moreover, in the experiment on Malme-3M, the GI50 is 0.438 µM (active).
`CC(=O)N1CC[N+](C)(CCCCN2c3ccccc3Sc3cc(N=[N+]=[N-])ccc32)CC1`: the GI50 in the experiment on SR, in the experiment on COLO 205, in the experiment with MDA-MB-231, with CCRF-CEM, in the experiment on BT-549 and in the experiment on OVCAR-5 was > 100 µM (inactive) in each case. Moreover, the GI50 in the experiment with SF-539, in the experiment on SK-OV-3, in the experiment on HCC 2998, in the experiment on NCI-H226, with SNB-19 and with NCI-H23 was > 100 µM (inactive) in each case. In addition, the GI50 in the experiment on K562 is 49.8 µM (inactive); in the experiment on SNB-75, > 100 µM (inactive); in the experiment with SF-295, > 100 µM (inactive); with MDA-N, > 100 µM (inactive); with SN12C, > 100 µM (inactive); with 786-0, > 100 µM (inactive). In the experiment on Malme-3M, the GI50 is > 100 µM (inactive).
As for `CC(=O)NC1C(OCc2ccccc2)OC(CO)C(O)C1OCC(=O)N[C@@H](C)C(=O)N[C@H](CCC(=O)NCCCNc1c2ccccc2nc2cccc([N+](=O)[O-])c12)C(N)=O` (stereo not given in full), the GI50 in the experiment with SR is 0.0249 µM (active); in the experiment on COLO 205, 0.0118 µM (active); in the experiment on MDA-MB-231, 0.05 µM (active); with CCRF-CEM, 0.052 µM (active); in the experiment on BT-549, 0.0845 µM (active); with OVCAR-5, 0.0718 µM (active). Besides, the GI50 in the experiment with SF-539 is 0.0298 µM (active); with SK-OV-3 it was 0.334 µM (active); in the experiment with HCC 2998 it was 0.0142 µM (active); with NCI-H226 it was 0.0586 µM (active); with SNB-19, 0.16 µM (active); with NCI-H23 it was 0.0248 µM (active). Moreover, the GI50 is 0.0229 µM (active) in the experiment with K562; 0.122 µM (active) with SNB-75; 0.15 µM (active) in the experiment on SF-295; 0.023 µM (active) in the experiment on MDA-N; 0.0397 µM (active) with SN12C; < 0.0168 µM (active) in the experiment on 786-0. For the same molecule, the GI50 in the experiment with Malme-3M is 0.0292 µM (active).
For the molecule `O=C(/C=C\Nc1ccccc1O)C(F)(F)F`, the GI50 in the experiment on SR was 36.3 µM (inactive); with COLO 205, 13.9 µM (inactive); in the experiment with MDA-MB-231, > 100 µM (inactive); in the experiment on CCRF-CEM it was 39 µM (inactive); in the experiment on BT-549 it was > 100 µM (inactive); with OVCAR-5, > 100 µM (inactive). Also, the GI50 with SF-539 is > 100 µM (inactive); in the experiment with SK-OV-3, 49.1 µM (inactive); with HCC 2998, > 100 µM (inactive); in the experiment with NCI-H226, > 100 µM (inactive); in the experiment with SNB-19 it was > 100 µM (inactive); with NCI-H23 it was 78.3 µM (inactive). For the same molecule, the GI50 is 38.5 µM (inactive) in the experiment on K562; > 100 µM (inactive) in the experiment with SNB-75; 50 µM (inactive) in the experiment with SF-295; 43 µM (inactive) with MDA-N; 54.8 µM (inactive) with SN12C; 35.1 µM (inactive) in the experiment with 786-0. Moreover, the GI50 in the experiment with Malme-3M was 26.5 µM (inactive).
With `COc1ccccc1NC(=S)N/N=C/c1cccc(C)n1`, the GI50 in the experiment on SR was 2.43 µM (inactive); with COLO 205 it was 1.68 µM (inactive); in the experiment with MDA-MB-231, 3.52 µM (inactive); with CCRF-CEM it was 0.422 µM (active); with BT-549 it was 15.1 µM (inactive); with OVCAR-5 it was > 27.4 µM (inactive). Moreover, the GI50 is 4.89 µM (inactive) in the experiment on SF-539; 6.55 µM (inactive) in the experiment with SK-OV-3; 10.5 µM (inactive) in the experiment with HCC 2998; 5.82 µM (inactive) with NCI-H226; 10.9 µM (inactive) in the experiment with SNB-19; 5.83 µM (inactive) in the experiment on NCI-H23. Moreover, the GI50 with K562 was 1.27 µM (inactive); in the experiment on SNB-75, 5.62 µM (inactive); with SF-295 it was 4.32 µM (inactive); with MDA-N, 4.17 µM (inactive); in the experiment with SN12C, 7.1 µM (inactive); with 786-0 it was 2.9 µM (inactive). Further, the GI50 with Malme-3M was 6.24 µM (inactive).
